# According to ChEMBL document CHEMBL1811819, “Ethyl malonate amides: a diketo acid offspring fragment for HIV integrase inhibition” (Bioorg Med Chem, 2011):
# Molecular target: T1, Human immunodeficiency virus type 1 integrase (Human immunodeficiency virus 1, UniProt Q7ZJM1)
# Test: Inhibition of HIV1 recombinant integrase 3'-processing and strand transfer activity using 21-mer U5B/U5A duplex oligonucleotides after 1 hr
# Conditions: not given; call rule not given here
# T1 sequence (Q7ZJM1 whole entry): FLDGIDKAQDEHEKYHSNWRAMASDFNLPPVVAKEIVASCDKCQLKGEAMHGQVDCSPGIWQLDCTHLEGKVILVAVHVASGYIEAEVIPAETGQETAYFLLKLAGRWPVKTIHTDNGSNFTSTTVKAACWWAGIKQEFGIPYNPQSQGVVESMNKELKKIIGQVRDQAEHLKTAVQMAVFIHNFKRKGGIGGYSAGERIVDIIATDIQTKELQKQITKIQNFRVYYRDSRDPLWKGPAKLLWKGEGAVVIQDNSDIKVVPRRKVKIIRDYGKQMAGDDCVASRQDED
row,IC50,Compound
1,Not Active,CCOC(=O)CC(=O)Nc1ccc(C)cc1[N+](=O)[O-]
2,Not Active,CCOC(=O)CC(=O)Nc1ccccc1[N+](=O)[O-]

# Same assay, conditions: read-out: IC50
row,IC50 [µM],Compound
1,50,CCOC(=O)CC(=O)Nc1ccc(C)cc1
2,2,CCOC(=O)CC(=O)Nc1ccc(C(=O)O)cc1
3,42,CCOC(=O)CC(=O)Nc1ccc2cccc(O)c2n1
4,> 100,CCOC(=O)CC(=O)NCc1ccc(F)cc1
5,> 100,Cc1ccc(NC(=O)CC(=O)O)c([N+](=O)[O-])c1
6,> 300,CCOC(=O)CC(=O)Nc1cc(C(=O)O)ccc1O
7,> 100,CCOC(=O)CC(=O)Nc1c(Cl)cccc1Cl
8,500,CCOC(=O)CC(=O)NS(=O)(=O)c1ccc(C)cc1

# Molecular target: T1, Human immunodeficiency virus type 1 integrase
# Test: Inhibition of HIV1 integrase
# Conditions: not given
row,IC50 [µM],Compound
1,47,Cc1ccc2c(O)c(C(=O)O)ccc2n1
2,> 100,Cc1ccc2ccc(C(=O)O)c(O)c2n1
